From patent publication US9403806B1, “Cognition enhancing compounds and compositions, methods of making, and methods of treating” (NeuroSolis, Inc., priority 2010, dated 2016)
Counter-ions that a name gives are not always drawn. Values belong to the compound of their own block, whether it stands above or below them.

Experiments:
[1] = test system: hippocampal inositol phosphate; assay: In vivo tissue inositol phosphate signaling pathway activation, hippocampus; set-up: species or system Long Evans Hooded rats; details: rat, Compound 3 1 mg/kg; for effect on increase in hippocampal inositol phosphate caused by Compound 3: antagonist 0.03 mg/kg
Experimental: (§1) Experimental compounds or drug substances were administered using standard techniques to Long Evans Hooded rats weighing 225 to 350 grams, and which had been pretreated with a subcutaneous injection of lithium chloride at a suitable dose between 3 and 10 mmoles per kg. At suitable times the animals were briefly anesthetized using 5% isoflurane and euthanized by decapitation. The brains and submaxillary salivary glands were rapidly dissected out, and the hippocampuses were dissected from the brains. The dissected tissues were homogenized in a suitable volume of ice-cold phosphate-buffered saline containing 10 mM lithium chloride, pH7.4, using a tissue homogenizer, and used immediately or frozen in aliquots at −80 deg C. for future use. The concentration of inositol-1-phosphate was determined in the homogenates using the IPOne TR-FRET assay (CisBio cat no 621PAPEB), following the manufacturer's instruction

[2] = test system: salivary gland inositol phosphate; assay: In vivo tissue inositol phosphate signaling pathway activation, salivary gland; set-up: species or system Long Evans Hooded rats; details: rat; for block of increase in salivary gland inositol phosphate caused by Compound 3: Compound 3 1 mg/kg; for inhibition of salivary gland inositol phosphate response to MCD-386: MCD-386 50 mg/kg, antagonist 0.3 mg/kg (FIG. 7)
Experimental: as §1

[3] = test system: anesthetized rats; assay: Salivation after iontophoretic transdermal co-delivery of agonist and antagonist; assay type: in vivo, Long Evans Hooded rats; details: anesthetized rat, one patch with 1 mg Compound 3 plus 0.01 mg antagonist
Experimental: Experimental compounds and drug substances were delivered transdermally in rats using iontophoresis as follows. The fur was shaved from the backs of Long Evans Hooded rats weighing 225 to 325 grams, using electric clippers. Experimental compounds and drug substances were formulated at suitable concentrations an aqueous mixture of the following composition:
The polyvinyl alcohol/water was heated to 95 deg C. until it became clear, then the other constituents were added and mixed well. The mixture was introduced into suitable molds containing a disc-shaped cavity 2.2 cm diameter and 2.2 mm deep. Molds may be fabricated using two glass sheets separated by a silicone rubber sheet with suitable sized cavities and filling ports cut-outs. The molds were subject to 3 freeze-thaw cycles at −80 deg C. and 20 deg C. until a firm cryogel was obtained. The gels were separated from the molds and trimmed into a circular shape. The gel was placed in a silicone rubber casing with one face in contact with a circular silver foil anodic electrode (22 mm dia/250 microns thick), and the assembly was placed on the shaved skin of the rat such that the other face was in contact with the skin on one side of the back of the rat. The rubber casing formed a seal over and around the gel/electrode assembly. […] This was placed on the other side of the shaved back of the rat, the edges of the gel discs being about 20 mm apart at their nearest point. A DC voltage was applied across the two patches from a constant-current DC power supply and the voltage adjusted to obtain the desired current, such that the skin of the animal completed the electrical circuit.
The devices were placed on shaved backs of anesthetized rats and salivation was measured.
(§2) The animals were placed slightly head-down on an inclined, heated ramp. Rectal temperature was monitored using a thermocouple and the temperature of the heating pad was adjusted manually to maintain normal body temperature. Saliva was collected from the mouth by absorption onto pre-weighed slips of filter paper. The filter paper was changed periodically and the amount of saliva was measured by weighing the filter paper slips

[4] = Metabolites in serum and urine of dosed rats (LC-MS); assay type: in vivo; details: rat serum or urine, 10 mg/kg po
Experimental: Oxadiazoles disclosed herein as well as other oxadiazoles were investigated to determine the formation of metabolites. Animals were dosed, blood taken, serum prepared, serum proteins precipitated and ultrafiltrates prepared as described in Example 6. In separate experiments, urine was collected from rats for 16-24 hours after dosing, using standard metabolic cages. The urine container and collected urine were maintained at 4° C. Urine was lyophilized, taken back into water. The uftrafiltrate was prepared by adding formic acid to a final concentration of 1% to the urine samples, then filtered through a 0.2 um nylon membrane. The ultrafiltrate was subjected to LC-MS analysis. Instead of measuring the product ions in Q3, manual Q1 scans of the liquid chromatograph were undertaken, seeking parent ions of potential metabolites of the compounds. The criteria for identifying metabolites were as follows: (1) the ion should be present in the sera or urines of dosed rats, but not in sera or urines from non-dosed rats (2) the ion should be identifiable as a metabolic derivative of the dosed compound (e.g. loss of a functional chemical moiety, addition of a hydroxyl group or a glucuronic acid moiety, etc). Metabolites were determined not to be present if no compound meeting the above criteria could be detected in serum or urine.

[5] = Blood and brain concentrations (rats), oral gavage; assay type: in vivo, Long-Evans Hooded rats; details: rat, 10 mg/kg po, 1 hr, relative to MCD-386 = 1.00
Experimental: Long-Evans Hooded rats (Charles River: male, 250-350 g) were dosed with solutions of test compounds in PBS by oral gavage. At the desired time after dosing, the animals were anesthetized with isoflurane, and then euthanized by cervical dislocation. Blood was obtained by cardiac puncture, transferred to a 1.5 mL microcentrifuge tube containing 15U Heparin, and the plasma recovered after centrifugation. Brains were dissected, weighed, immediately chilled to 4° C., and homogenized using a PowerGen 125 homogenizer in five volumes of ice-cold 2% formic acid. Proteins were precipitated from plasma and brain homogenate with two and five volumes respectively of ice-cold 2% formic acid and clarified by centrifugation. The supernatant was ultra-filtered by centrifugation through a 3K MWCO spin column (Pall Life Sciences), following the manufacturer's instructions. The concentration of compound in the ultra-filtrate was subjected to reverse-phase liquid chromatography using a 150×2.1 mm Agilent C8 reverse-phase column on a Shimadzu Prominence LC, eluting the compounds with a gradient of 2% to 50% of acetonitrile+0.1% formic acid for compound MI-50,382, or an isocratic flow of 2% acetonitrile+0.1% formic acid for the rest of the compounds listed. The concentration of the compound in the column effluent was measured using an Applied Biosystems API-3200 triple quadrupole mass spectrometer equipped with an electrospray sample injection system. The counts of the characteristic parent and product ions of each test compound were converted to concentration units by comparison with a standard calibration curve.

[6] = target: T1, human muscarinic M3 receptors (Homo sapiens, UniProt P20309); assay: IP production in A9L cells with human M3 receptors (IPOne TR-FRET), Example 28; assay type: cell-based; details: for huM3/A9L Smax: percentage of maximal stimulation by carbachol; for huM3/A9L ED50 relative to CCh*: potency relative to carbachol at its EC50, semi-quantitative
T1 construct: host or cells: A9L cells
Experimental: (§3) Muscarinic M1 and M3 agonist activity was evaluated by measuring the stimulation of inositol phosphate (IP) production in the presence of lithium chloride from A9L cells transfected with expression plasmids containing human muscarinic M1 and M3 receptors, respectively. The cell lines were a gift from Professor W Messer, and the methods were as described in Tejada F R et al. J. Med. Chem. 2006; 49: 7518-31 except that the assay was scaled down to run in 384 well plates, and IP was measured in the cell lysates using the non-isotopic IPOne TR-FRET assay (CIS-BIO, Inc).
(§4) Cells were grown to 90% confluence in 384 well hi-base plates (Greiner Bio-One), compounds were added at suitable concentrations in growth medium containing 10 mM LiCl, buffered with an extra 10 mM HEPES (pH7.4), and incubated for 60 minutes at 37° C. Cells were lysed and assayed for IP following the manufacturer's instructions.
(§5) The value for a full agonist is 100%, while partial agonists give values below 100%.

[7] = PAMPA test, Example 34
[8] = target: T2, human muscarinic M1 receptors (Homo sapiens, UniProt P11229); assay: IP production in A9L cells with human M1 receptors (IPOne TR-FRET), Example 28; assay type: cell-based; details: for huM1/A9L Smax: percentage of maximal stimulation by carbachol; for huM1/A9L ED50 relative to CCh*: potency relative to carbachol at its EC50, semi-quantitative
T2 construct: host or cells: A9L cells
T2 sequence (P11229 1-460): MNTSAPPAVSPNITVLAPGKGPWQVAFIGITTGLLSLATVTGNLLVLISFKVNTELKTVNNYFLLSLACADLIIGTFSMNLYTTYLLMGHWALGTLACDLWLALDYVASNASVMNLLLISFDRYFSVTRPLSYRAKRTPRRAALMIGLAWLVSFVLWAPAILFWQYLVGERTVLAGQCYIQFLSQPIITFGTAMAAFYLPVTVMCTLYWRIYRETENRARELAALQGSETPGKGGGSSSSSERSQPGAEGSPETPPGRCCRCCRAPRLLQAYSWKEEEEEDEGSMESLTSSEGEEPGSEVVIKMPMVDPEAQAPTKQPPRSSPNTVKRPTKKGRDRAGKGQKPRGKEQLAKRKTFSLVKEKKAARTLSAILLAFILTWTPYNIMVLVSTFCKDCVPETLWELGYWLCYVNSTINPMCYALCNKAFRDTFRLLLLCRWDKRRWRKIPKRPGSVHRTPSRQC
Experimental: as §3, §4, §5

[9] = test system: anesthetized normal rats; assay: In vivo measurement of salivation; set-up: species or system Long Evans Hooded rats; details: rats
Experimental: as §2, with “Suitable doses of test compounds or drug substances were administered using standard techniques to Long Evans Hooded rats weighing 225 to 350 grams, or CD-1 mice weighing 30 to 50 grams, which had been anesthetized using 2-3.5%% of isoflurane in oxygen. The animals” for “The animals”

[10] = target: T3, human FMO1 Supersomes (Homo sapiens, UniProt Q01740); assay: Metabolism by flavin monoxygenase 1 (FMO1) Supersomes; assay type: in vitro ADME; details: after 6 hours (FIG. 2)
T3 construct: purchased BD Biosciences 456241
T3 sequence (Q01740 1-532): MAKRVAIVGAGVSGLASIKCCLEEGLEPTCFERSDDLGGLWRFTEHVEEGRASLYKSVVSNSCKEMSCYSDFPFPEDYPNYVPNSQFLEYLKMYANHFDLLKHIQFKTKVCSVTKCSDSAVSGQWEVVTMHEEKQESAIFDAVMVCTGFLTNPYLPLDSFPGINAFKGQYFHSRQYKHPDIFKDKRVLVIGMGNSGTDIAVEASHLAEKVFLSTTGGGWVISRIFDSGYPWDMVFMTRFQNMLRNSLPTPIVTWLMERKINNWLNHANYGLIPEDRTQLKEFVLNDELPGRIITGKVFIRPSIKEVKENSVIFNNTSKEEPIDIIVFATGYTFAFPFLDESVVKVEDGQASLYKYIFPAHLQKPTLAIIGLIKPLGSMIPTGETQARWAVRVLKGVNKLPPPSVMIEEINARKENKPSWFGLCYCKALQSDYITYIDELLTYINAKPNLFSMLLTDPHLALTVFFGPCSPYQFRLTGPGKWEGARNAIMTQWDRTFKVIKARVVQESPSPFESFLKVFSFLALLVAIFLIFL
Experimental: […] Aliquots were removed every 10 minutes, and 1% formic acid was added to halt the reaction. Samples were centrifuged, filtered through 0.2 micron spinfilter and the amount of each compound in the supernatants was quantitated using LC/MS/MS.

[11] = antagonist 0.03 mg/kg (FIGS. 8C, 8D)

T1 sequence (P20309 whole entry): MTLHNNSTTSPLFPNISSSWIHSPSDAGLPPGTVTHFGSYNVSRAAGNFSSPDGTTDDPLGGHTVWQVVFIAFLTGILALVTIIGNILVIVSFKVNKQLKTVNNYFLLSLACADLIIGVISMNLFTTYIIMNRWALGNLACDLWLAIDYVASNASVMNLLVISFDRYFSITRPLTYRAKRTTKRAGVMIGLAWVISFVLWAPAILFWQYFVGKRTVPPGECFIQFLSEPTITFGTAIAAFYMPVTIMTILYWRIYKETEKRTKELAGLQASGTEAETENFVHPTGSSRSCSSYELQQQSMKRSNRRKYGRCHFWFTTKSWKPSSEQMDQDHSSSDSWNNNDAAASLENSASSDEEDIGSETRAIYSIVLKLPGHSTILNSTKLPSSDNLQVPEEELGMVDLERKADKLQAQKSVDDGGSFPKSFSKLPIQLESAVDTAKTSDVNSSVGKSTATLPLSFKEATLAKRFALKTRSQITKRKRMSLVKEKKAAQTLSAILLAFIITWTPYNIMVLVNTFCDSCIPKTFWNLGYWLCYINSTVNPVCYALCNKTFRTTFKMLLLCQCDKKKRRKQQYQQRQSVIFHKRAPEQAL

Compound: CC(C)[N+](C)(CCOC(=O)C1c2ccccc2Oc2ccccc21)C(C)C [propantheline]
effect on increase in hippocampal inositol phosphate caused by Compound 3 [1]: without blocking the increase in hippocampal inositol phosphate
block of increase in salivary gland inositol phosphate caused by Compound 3 [2, 11]: can block
inhibition of salivary gland inositol phosphate response to MCD-386 [2]: virtually completed inhibited
reduction of salivation caused by transdermal iontophoretic delivery of Compound 3 [3]: greatly reduced

Presence of metabolites (10 mg/kg po) [4]: No
Brain Cmax (10 mg/kg po) 1 hr MCD-386 = 1.00 [5]: 0.82
Compound: [2H]C([2H])(C)c1noc(C2CN=CNC2)n1 (stereo not shown) [Compound 6c, 3-(1,1-d2-ethyl)-5-(1,4,5,6-tetrahydropyrimidin-5-yl)-1,2,4-oxadiazole hydrochloride]

huM3/A9L Smax [6]: 70%
huM3/A9L ED50 relative to CCh* [6]: −− (−− potency <0.1x CCh)
Papp ([7]; PAMPA): 16.3 ×10⁻⁶ cm/s
huM1/A9L Smax [8]: 81%
huM1/A9L ED50 relative to CCh* [8]: − (− potency <0.5-0.1x CCh)
Compound: Cc1noc(C2(F)CCCNC2)n1 (stereo not shown) [Compound 35, 5-(3-fluoropiperidin-3-yl)-3-methyl-1,2,4-oxadiazole]

Compound: C[N+]1(C)[C@@H]2C[C@@H](OC(=O)[C@H](CO)c3ccccc3)C[C@H]1[C@@H]1O[C@@H]12 [NMS]
decrease in salivation caused by Compound 3 ([9]; Compound 3 0.3 mg/kg (FIG. 12)): dose-dependent decrease in salivation
reduction in salivation caused by MCD-386 ([9]; MCD-386 1 mg/kg (FIG. 13)): dose-dependent reduction
effect on increase in inositol phosphate in the hippocampus caused by Compound 3 ([1]; antagonist 0.1 mg/kg): does not inhibit
block of increase in salivary gland inositol phosphate caused by Compound 3 ([2]; antagonist 0.003 mg/kg): some breakthrough activation
block of increase in salivary gland inositol phosphate caused by Compound 3 ([2]; antagonist 0.03 mg/kg to 0.01 mg/kg): nearly as effective as 0.1 mg/kg
block of increase in salivary gland inositol phosphate caused by Compound 3 ([2]; antagonist 0.1 mg/kg (FIGS. 8A, 8B)): completely block
reduction of salivation caused by transdermal iontophoretic delivery of Compound 3 [3]: greatly reduced

Compound: C[N+]1(C)CCC(OC(=O)C(O)(c2ccccc2)C2CCCC2)C1 (stereo not shown) [glycopyrrolate]
effect on increase in hippocampal inositol phosphate caused by Compound 3 [1]: without blocking the increase in hippocampal inositol phosphate
block of increase in salivary gland inositol phosphate caused by Compound 3 [2, 11]: can block
inhibition of salivary gland inositol phosphate response to MCD-386 [2]: virtually completed inhibited
reduction of salivation caused by transdermal iontophoretic delivery of Compound 3 [3]: greatly reduced

Compound: 3-methyl-5-(quinuclidin-3-yl)-1,2,4-oxadiazole [Compound 37]
huM3/A9L Smax [6]: 50-100%
huM3/A9L ED50 relative to CCh* [6]: ++ (++ potency >10x CCh)
PAMPA Permeability Coefficient (×10^6) ([7]; Table 14): 3.02 ×10^6
selectivity between M1 and M3 receptors ([8]; huM1 versus huM3 A9L cells): essentially non-selective between M1 and M3 receptors
huM1/A9L Smax [8]: 50-100%
huM1/A9L ED50 relative to CCh* [8]: ++ (++ potency >10x CCh)
extent of metabolism in FMO Supersomes (in words) [10]: almost completely metabolized

Presence of metabolites (10 mg/kg po) [4]: No
Brain Cmax (10 mg/kg po) 1 hr MCD-386 = 1.00 [5]: 0.61
Compound: [2H]C([2H])([2H])C([2H])([2H])c1noc(C2CN=CNC2)n1 (stereo not shown) [Compound 2c, 3-(1,1,2,2,2-d5-ethyl)-5-(1,4,5,6-tetrahydropyrimidin-5-yl)-1,2,4-oxadiazole hydrochloride]
